Assay results from publication PMC10177692, “Novel topoisomerase II/EGFR dual inhibitors: design, synthesis and docking studies of naphtho[2′,3′:4,5]thiazolo[3,2-a]pyrimidine hybrids as potential anticancer agents with apoptosis inducing activity” (Journal of Enzyme Inhibition and Medicinal Chemistry, 2023).
Like-named read-outs stand apart in the source and are kept apart here. One block for each compound: values may come before it.

What was measured:
[1] = tested on: A549; experiment: MTT anti-proliferative assay; type: cell-based, human; conditions: for fold the activity of erlotinib: A549, ratio of IC50 values; for IC50: Homo sapiens, A549, MTT, 24 h, mean ± SE of three experiments, read-out: IC50 (µM) ± S.E. A549
Method: (§1) The culture media were supplemented with 10% heat inactivated foetal bovine serum (FBS, HyClone, Thermo Scientific) and antibiotics (100 U/ml penicillin and 100 µg/ml streptomycin, HyClone, Thermo Scientific). The cells were incubated in a humidified atmosphere containing 5% CO2 (Heracell VIOS CO2 incubator, Thermo Scientific) in air at 37 °C.
(§2) MTT reagent, at volume equal to 10% of the culture medium volume, was added to the cultured cells and to the blank wells. The culture plates were re-incubated for 2–4 h depending on cell type and density. After the incubation period, culture plates were restored from the incubator and the obtained formazan crystals were dissolved in acidified isopropanol with continuous shaking using plate shaker (MaxQ 2000, Thermo Fisher Scientific Inc., MI, USA) at room temperature. Absorbance was measured spectrophotometrically at wavelength 570 nm using a plate reader (Stat FaxR 4200, Awareness Technology, Inc., FL, USA). […] Three independent experiments were performed for each compound and Mean ± SE were calculated.

[2] = tested on: HCT-116; experiment: MTT anti-proliferative assay; type: cell-based, human; conditions: Homo sapiens, HCT-116; MTT, 24 h, mean ± SE of three experiments; read-out: IC50 (µM) ± S.E. HCT-116
Method: as §1, §2

[3] = tested on: MCF-7; experiment: MTT anti-proliferative assay; type: cell-based, human; conditions: for IC50: Homo sapiens, MCF7; for fold the activity of erlotinib: MCF-7, ratio of IC50 values
Method: as §1, §2

[4] = target: T1, topoisomerase IIα (Homo sapiens, UniProt P11388); experiment: Topoisomerase IIα inhibitory activity (ELISA kit); type: cell-based; conditions: MCF-7 cell line; for % inhibition of topoisomerase IIα activity: compounds at their IC50, compared to control
T1 construct: it decreases the concentration of topoisomerase iIα in MCF-7 cell line to 1.043 ± 0.10 ng/ml; endogenous in cells; host or cells: MCF-7
Method: Biotin-conjugated antibody was added to each well followed by incubation at 37 °C for 1 h, then the plates were aspirated. Avidin conjugated Horseradish Peroxidase (HRP avidin) solution was added to each well, incubated again at 37 °C for 1 h. TMB substrate was added to the wells and the plate was incubated at 37 °C for 30 min at dark place. The absorbance was read using spectrophotometer at a wavelength of 450 nm.

[5] = target: T2, topoisomerase II (Homo sapiens, UniProt P11388); experiment: DNA topo II inhibition assay (kDNA, agarose gel); type: biochemical; conditions: 10 µM, with topo II
T2 construct: purchased Topogen, USA
Method: Using the procedure outlined in topoisomerase II Drug Screening Kit (Topogen, USA), the effect of 6a, 6c and 6i on topoisomerase II inhibition and the effectiveness of catenated/decatenated kDNA formation were examined. The reaction mixture includes 10 mM MgCl2, 50 mM Tris-HCl, 0.5 mM dithiothreitol, […]/ml bovine serum albumin, 200–300 ng of kDNA and topoisomerase II. […] After the reaction samples were incubated for 30 min at 37 °C, the reaction was stopped by adding […] of a stop buffer containing 10% (w/v) SDS and […] of 0.5 mg/ml proteinase followed by incubating the mixture for 10 min at 37 °C. The reaction mixture was separated by 1% agarose gel and examined after being stained with ethidium bromide.

[6] = target: T3, EGFR (Homo sapiens, UniProt P00533); experiment: EGFR kinase assay kit; type: biochemical; conditions: mean ± SE; read-out: EGFR inhibitory activity IC50
T3 construct: purchased BPS Bioscience, San Diego, CA, USA
Method: The kinase activity of EGFR was assessed for 6a, 6c and 6i hybrids using EGFR kinase assay kit (BPS Bioscience, San Diego, CA, USA) based on the manufacturer’s instructions. Three independent experiments were performed for each compound and Mean ± SE were calculated.

[7] = tested on: p53; experiment: p53 level ELISA in MCF-7 cells; type: cell-based, human; conditions: for p53 FLD: MCF-7, at IC50, fold of control cells; for p53 Conc.(pg/ml): MCF-7, at IC50, control 257 ± 19.1
Method: p53 level was determined in MCF-7 cell line using Human p53 ELISA Kit (Sigma Aldrich, St. Louis, MO, USA). The cells were lysed using cell extraction buffer. Cell lysate was diluted with standard diluent buffer, then added to p53 monoclonal antibody pre-coated 96-wells plate. The plate incubated for 2 h at room temperature. Anti-p53 detection antibody was added to the plate and re-incubated at room temperature for 1 h. The plate washed four times using wash buffer followed by addition of anti-rabbit IgG-Horseradish Peroxidase (HRP) working solution. The plate incubated at room temperature for 30 min. Chromogen TMB (tetramethylbenzidine) was added to induce colour reaction. The absorbance of the plate was read at 450 nm using microplate reader (Bio-Rad Laboratories, Hercules, CA, USA). Three independent experiments were performed for each compound and Mean ± SE were calculated.

[8] = tested on: Bax; experiment: Bax level ELISA in MCF-7 cells; type: cell-based, human; conditions: for Bax Conc.(pg/ml): MCF-7, at IC50, 24 h, control 83.16 ± 6.2; for Bax FLD: MCF-7, at IC50, fold of control cells
Method: (§3) MCF-7 cells were cultured in DMEM supplied with 10% FBS and incubated in 5% CO2 in air at 37 °C. […] Cell lysate was diluted using standard diluent buffer over the range of assay. Bax and Bcl-2 content in the lysate was assessed using human Bax ELISA kit (DRG, USA) and Bcl-2 ELISA Kit (Zymed Laboratories, Invitrogen Immuno-detection, Canada), respectively, according to the manufacturer’s instructions for each kit. The results were expressed as Mean ± SE of three independent experiments.

[9] = tested on: Bcl-2; experiment: Bcl-2 level ELISA in MCF-7 cells; type: cell-based, human; conditions: for Bcl-2 Conc.(ng/ml): MCF-7, at IC50, 24 h, control 6.56 ± 0.22; for Bcl-2 FLD: MCF-7, at IC50, fold of control cells
Method: as §3

[10] = tested on: caspase-7; experiment: Caspase-7 ELISA in MCF-7 cells; type: cell-based, human; conditions: for Caspase 7 FLD: MCF-7, at IC50, fold of control; for Caspase 7 Conc.(ng/ml): MCF-7, at IC50, control 0.45 ± 0.03
Method: (§4) The effect of 6a, 6c and 6i hybrids on caspase-7 and −9 levels in MCF-7 cell line was measured using Human Caspase-7 ELISA Kit (BioVision Inc., Milpitas, CA 95035 USA) and Human Caspase-9 ELISA Kit (EIA-4860, DRG, USA), respectively, and according to the manufacturer’s instructions. The results were expressed as Mean ± SE of three independent experiments.

[11] = tested on: caspase-9; experiment: Caspase-9 ELISA in MCF-7 cells; type: cell-based, human; conditions: for Caspase 9 FLD: MCF-7, at IC50, fold of control; for Caspase 9 Conc.(pg/ml): MCF-7, at IC50, control 4.51 ± 0.29
Method: as §4

[12] = MTT, 24 h, mean ± SE of three experiments, read-out: IC50 (µM) ± S.E. MCF-7
[13] = MCF-7, concentration used for treatment, read-out: IC50 (Table 2)
[14] = MCF-7, concentration used for treatment, read-out: IC50 (Table 3)

T1 sequence (P11388 whole entry): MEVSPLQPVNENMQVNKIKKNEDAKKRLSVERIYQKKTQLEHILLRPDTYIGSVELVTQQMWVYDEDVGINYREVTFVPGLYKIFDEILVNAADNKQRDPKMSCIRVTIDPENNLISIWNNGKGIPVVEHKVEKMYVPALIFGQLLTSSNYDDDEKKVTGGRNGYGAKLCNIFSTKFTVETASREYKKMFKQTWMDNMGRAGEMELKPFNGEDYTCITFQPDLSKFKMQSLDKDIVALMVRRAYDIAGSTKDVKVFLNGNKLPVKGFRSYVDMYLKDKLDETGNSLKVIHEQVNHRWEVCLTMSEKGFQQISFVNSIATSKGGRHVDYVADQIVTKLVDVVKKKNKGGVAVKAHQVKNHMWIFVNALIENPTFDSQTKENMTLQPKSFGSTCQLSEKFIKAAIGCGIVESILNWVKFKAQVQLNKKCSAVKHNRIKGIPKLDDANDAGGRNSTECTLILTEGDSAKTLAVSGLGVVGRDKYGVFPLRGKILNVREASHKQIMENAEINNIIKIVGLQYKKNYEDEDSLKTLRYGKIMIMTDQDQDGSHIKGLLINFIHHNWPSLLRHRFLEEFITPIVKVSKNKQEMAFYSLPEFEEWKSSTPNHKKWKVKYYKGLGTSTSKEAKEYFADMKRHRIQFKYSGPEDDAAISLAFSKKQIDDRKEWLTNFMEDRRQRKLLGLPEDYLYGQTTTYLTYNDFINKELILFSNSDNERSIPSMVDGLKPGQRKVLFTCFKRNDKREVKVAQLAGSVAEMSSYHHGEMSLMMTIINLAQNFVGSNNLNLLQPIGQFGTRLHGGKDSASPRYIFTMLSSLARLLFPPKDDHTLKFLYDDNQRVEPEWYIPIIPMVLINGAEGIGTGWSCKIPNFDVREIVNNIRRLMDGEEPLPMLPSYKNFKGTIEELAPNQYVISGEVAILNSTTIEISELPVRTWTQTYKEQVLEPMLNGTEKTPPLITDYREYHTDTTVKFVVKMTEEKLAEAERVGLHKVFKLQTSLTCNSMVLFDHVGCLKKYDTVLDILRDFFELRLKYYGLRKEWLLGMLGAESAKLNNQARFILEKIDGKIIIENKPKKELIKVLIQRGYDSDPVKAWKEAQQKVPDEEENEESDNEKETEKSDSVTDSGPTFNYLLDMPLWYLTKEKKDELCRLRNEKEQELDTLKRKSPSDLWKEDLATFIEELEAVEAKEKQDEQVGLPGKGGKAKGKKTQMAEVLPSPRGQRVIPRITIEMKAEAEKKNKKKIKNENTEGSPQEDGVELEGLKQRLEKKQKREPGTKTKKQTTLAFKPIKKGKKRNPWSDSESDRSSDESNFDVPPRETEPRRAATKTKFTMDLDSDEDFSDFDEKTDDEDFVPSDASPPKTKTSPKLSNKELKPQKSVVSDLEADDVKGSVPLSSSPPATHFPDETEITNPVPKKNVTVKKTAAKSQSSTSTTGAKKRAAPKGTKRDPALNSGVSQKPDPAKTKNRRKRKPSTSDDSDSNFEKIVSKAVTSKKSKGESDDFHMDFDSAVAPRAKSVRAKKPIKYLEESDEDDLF
T2 sequence (P11388 whole entry): as above
T3 sequence (P00533 25-1210): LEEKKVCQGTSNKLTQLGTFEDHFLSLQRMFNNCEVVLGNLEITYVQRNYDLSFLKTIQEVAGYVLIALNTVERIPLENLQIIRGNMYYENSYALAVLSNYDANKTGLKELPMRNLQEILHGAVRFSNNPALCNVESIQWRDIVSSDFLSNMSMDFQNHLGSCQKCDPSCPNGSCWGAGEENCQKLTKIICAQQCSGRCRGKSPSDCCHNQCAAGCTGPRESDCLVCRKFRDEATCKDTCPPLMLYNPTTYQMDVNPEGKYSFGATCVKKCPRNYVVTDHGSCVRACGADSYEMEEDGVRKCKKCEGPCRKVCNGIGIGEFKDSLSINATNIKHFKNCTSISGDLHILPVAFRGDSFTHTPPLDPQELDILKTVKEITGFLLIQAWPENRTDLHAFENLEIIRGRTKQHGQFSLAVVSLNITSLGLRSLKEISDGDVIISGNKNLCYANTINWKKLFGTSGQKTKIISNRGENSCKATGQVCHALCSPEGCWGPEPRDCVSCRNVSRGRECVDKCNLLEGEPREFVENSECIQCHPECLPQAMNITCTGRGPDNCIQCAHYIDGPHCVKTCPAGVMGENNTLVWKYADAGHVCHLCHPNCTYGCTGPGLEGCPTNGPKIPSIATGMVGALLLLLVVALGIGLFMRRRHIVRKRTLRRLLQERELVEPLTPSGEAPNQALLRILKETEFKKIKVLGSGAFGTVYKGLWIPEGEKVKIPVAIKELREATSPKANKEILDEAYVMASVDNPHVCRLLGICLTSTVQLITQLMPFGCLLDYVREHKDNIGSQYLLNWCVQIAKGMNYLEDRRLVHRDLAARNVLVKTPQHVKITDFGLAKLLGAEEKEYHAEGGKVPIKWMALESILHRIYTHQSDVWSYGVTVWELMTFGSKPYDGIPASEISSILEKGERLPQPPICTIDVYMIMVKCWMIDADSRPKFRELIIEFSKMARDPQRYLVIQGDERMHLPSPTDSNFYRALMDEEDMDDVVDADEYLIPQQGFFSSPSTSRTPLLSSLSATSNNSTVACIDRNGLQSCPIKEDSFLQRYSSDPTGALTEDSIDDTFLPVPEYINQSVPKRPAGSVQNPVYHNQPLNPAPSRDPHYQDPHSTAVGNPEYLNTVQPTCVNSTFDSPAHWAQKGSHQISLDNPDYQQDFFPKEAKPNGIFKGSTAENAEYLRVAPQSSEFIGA

Structure (SMILES): N#Cc1c(-c2ccc(Br)cc2)nc2sc3c(n2c1=O)C(=O)c1ccccc1C3=O [Compound 6d, 2–(4-Bromophenyl)-4,6,11-trioxo-6,11-dihydro-4H-naphtho[’',’':4,5]thiazolo-[3,2-a]pyrimidine-3-carbonitrile]
fold the activity of erlotinib [1]: 1.60 fold
IC50 [1]: 3.25 ± 0.31 µM
IC50 [2]: 11.77 ± 0.11 µM
IC50 [3, 12]: 5.66 ± 0.29 µM
fold the activity of erlotinib [3]: 1.28 fold

IC50 [1]: 5.19 ± 0.36 µM
IC50 [2]: 8.64 ± 0.18 µM
IC50 [3, 12]: 7.26 ± 0.2 µM
Structure (SMILES): C#Cc1cccc(Nc2ncnc3cc(OCCOC)c(OCCOC)cc23)c1 [Erlotinib, erlotinib, reference compound]

Structure (SMILES): N#Cc1c(-c2ccc(F)cc2)nc2sc3c(n2c1=O)C(=O)c1ccccc1C3=O [Compound 6b, 2–(4-Fluorophenyl)-4,6,11-trioxo-6,11-dihydro-4H-naphtho[’',’':4,5]thiazolo-[3,2-a]pyrimidine-3-carbonitrile]
fold the activity of erlotinib [1]: 1.23 fold
IC50 [1]: 4.2 ± 0.41 µM
IC50 [2]: 11.5 ± 0.12 µM
IC50 [3, 12]: 4.78 ± 0.36 µM
fold the activity of erlotinib [3]: 1.52 fold

IC50 [1]: 21.2 ± 1.23 µM
IC50 [2]: 56.2 ± 4.11 µM
IC50 [3, 12]: 37.9 ± 2.25 µM
Structure (SMILES): CN(C)c1ccc(-c2nc3sc4c(n3c(=O)c2C#N)C(=O)c2ccccc2C4=O)cc1 [Compound 6h, 2–(4-(Dimethylamino)phenyl)-4,6,11-trioxo-6,11-dihydro-4H-naphtho-[’',’':4,5]thiazolo[3,2-a]pyrimidine-3-carbonitrile]

IC50 [1]: 5.72 ± 0.37 µM
IC50 [2]: 9.81 ± 0.65 µM
IC50 [3, 12]: 5.14 ± 0.32 µM
Structure (SMILES): N#Cc1c(-c2ccc(Cl)cc2)nc2sc3c(n2c1=O)C(=O)c1ccccc1C3=O [Compound 6e, 2–(4-Chlorophenyl)-4,6,11-trioxo-6,11-dihydro-4H-naphtho[’',’':4,5]thiazolo-[3,2-a]pyrimidine-3-carbonitrile]

IC50 [1]: 3.65 ± 0.25 µM
IC50 [2]: 3.66 ± 0.39 µM
IC50 [3, 13]: 4.42 µM
IC50 [3, 14]: 4.42 µM
IC50 [3, 12]: 4.42 ± 0.35 µM
% inhibition of topoisomerase IIα activity [4]: 11.30%
IC50 [6]: 0.0447 ± 0.00082 µM
Structure (SMILES): COc1ccc(-c2nc3sc4c(n3c(=O)c2C#N)C(=O)c2ccccc2C4=O)cc1OC [Compound 6c, 2–(3,4-Dimethoxyphenyl)-4,6,11-trioxo-6,11-dihydro-4H-naphtho[’',’':4,5]-thiazolo[3,2-a]pyrimidine-3-carbonitrile]
linear DNA formation from catenated kDNA [5]: the production of linear DNA was not noticed
p53 FLD [7]: 2.6 fold
p53 Conc.(pg/ml) [7]: 678 ± 42.3 pg/mL
Bax Conc.(pg/ml) [8]: 372.7 ± 9.4 pg/mL
Bax FLD [8]: 4.48 fold
Bcl-2 Conc.(ng/ml) [9]: 2.17 ± 0.36 ng/mL
Bcl-2 FLD [9]: 0.33 fold
Caspase 7 FLD [10]: 4.20 fold
Caspase 7 Conc.(ng/ml) [10]: 1.89 ± 0.02 ng/mL
Caspase 9 FLD [11]: 3.03 fold
Caspase 9 Conc.(pg/ml) [11]: 13.68 ± 0.42 pg/mL

Structure (SMILES): COc1cccc2c1C(=O)c1c(O)c3c(c(O)c1C2=O)C[C@@](O)(C(=O)CO)C[C@@H]3O[C@H]1C[C@H](N)[C@H](O)[C@H](C)O1 [Dox, Doxorubicin, reference compound]
IC50 [1]: 4.95 ± 0.29 µM
IC50 [2]: 6.78 ± 0.44 µM
IC50 [3, 13]: 5.62 µM
IC50 [3, 14]: 5.62 µM
IC50 [3, 12]: 5.62 ± 0.31 µM
% inhibition of topoisomerase IIα activity [4]: 65.92%
concentration of topoisomerase IIα ([4]; compounds at their IC50, control 3.663 ± 0.09 ng/ml): 1.248 ± 0.09 ng/mL
p53 FLD [7]: 4 fold
p53 Conc.(pg/ml) [7]: 1051 ± 22.6 pg/mL
Bax Conc.(pg/ml) [8]: 511.2 ± 6.5 pg/mL
Bax FLD [8]: 6.14 fold
Bcl-2 Conc.(ng/ml) [9]: 1.66 ± 0.03 ng/mL
Bcl-2 FLD [9]: 0.25 fold
Caspase 7 FLD [10]: 23.2 fold
Caspase 7 Conc.(ng/ml) [10]: 10.44 ± 0.92 ng/mL
Caspase 9 FLD [11]: 6.53 fold
Caspase 9 Conc.(pg/ml) [11]: 29.48 ± 0.25 pg/mL

IC50 [1]: 42.2 ± 2.19 µM
IC50 [2]: 9 ± 0.66 µM
IC50 [3, 12]: 13.8 ± 1.12 µM
Structure (SMILES): N#Cc1c(-c2ccccc2)nc2sc3c(n2c1=O)C(=O)c1ccccc1C3=O [Compound 6g, 4,6,11-Trioxo-2-phenyl-6,11-dihydro-4H-naphtho[’',’':4,5]thiazolo[3,2-a]-pyrimidine-3-carbonitrile]

IC50 [1]: 38.3 ± 3.21 µM
IC50 [2]: 26.8 ± 1.78 µM
IC50 [3, 12]: 29.1 ± 1.56 µM
Structure (SMILES): COc1cc(-c2nc3sc4c(n3c(=O)c2C#N)C(=O)c2ccccc2C4=O)cc(OC)c1OC [Compound 6f, 4,6,11-Trioxo-2–(3,4,5-trimethoxyphenyl)-6,11-dihydro-4H-naphtho[’',’':4,5]-thiazolo[3,2-a]pyrimidine-3-carbonitrile]
